Patent US4684664A, “Derivatives of β-(4-isocyano-1,2,3,4-diepoxycyclopentyl) acrylic acid” (Kureha Kagaku Kogyo Kabushiki Kaisha, priority 1984, dated 1987)
≈ marks a conversion by molar mass, not a printed value.

Columns and labels:
Assay type in all cases: cell-based
[1] = tested on: Proteus morganii IFO 3848; assay: Antibacterial activity, agar-dilution MIC, organism No. 18; details: Morganella morganii, IFO3848; Organism No. 18, bouillon-agar; read-out: Minimum Inhibitory Concentration
Excerpt: (§1) Agar-dilution method was used for determination of the antibacterial activity and antifungal activity while using bouillon-agar culture medium, and the minimum inhibitory concentration of the specimen was expressed by μg/ml of the culture medium.

[2] = tested on: Proteus mirabilis IFO 3849; assay: Antibacterial activity, agar-dilution MIC, organism No. 19; details: Proteus mirabilis, IFO3849; Organism No. 19, bouillon-agar; read-out: Minimum Inhibitory Concentration
Excerpt: as §1

[3] = tested on: Salmonella shottmuelleri 8006; assay: Antibacterial activity, agar-dilution MIC, organism No. 11; details: Salmonella, 8006; Organism No. 11, bouillon-agar; read-out: Minimum Inhibitory Concentration
Excerpt: as §1

[4] = tested on: Salmonella typhimurium IID 971; assay: Antibacterial activity, agar-dilution MIC, organism No. 8; details: Salmonella enterica; Organism No. 8, bouillon-agar; read-out: Minimum Inhibitory Concentration
Excerpt: as §1

[5] = tested on: Salmonella enteritidis G 14; assay: Antibacterial activity, agar-dilution MIC, organism No. 12; details: Salmonella enterica, ENTERITIDIS; Organism No. 12, bouillon-agar; read-out: Minimum Inhibitory Concentration
Excerpt: as §1

[6] = tested on: Klebsiella pneumoniae PCI-602; assay: Antibacterial activity, agar-dilution MIC, organism No. 7; details: Klebsiella pneumoniae, PCI602; Organism No. 7, bouillon-agar; read-out: Minimum Inhibitory Concentration
Excerpt: as §1

[7] = tested on: Escherichia coli K12 C600 IAM 1264; assay: Antibacterial activity, agar-dilution MIC, organism No. 6; details: Escherichia coli, IAM1264; Organism No. 6, bouillon-agar; read-out: Minimum Inhibitory Concentration
Excerpt: as §1

[8] = tested on: Micrococcus luteus ATCC 9341; assay: Antibacterial activity, agar-dilution MIC, organism No. 25; details: Micrococcus luteus, ATCC9341; Organism No. 25, bouillon-agar; read-out: Minimum Inhibitory Concentration
Excerpt: as §1

[9] = tested on: Mycoplasma pneumoniae IID817; assay: Antimycoplasmal activity, MIC by phenol red colour change, organism No. 28; details: Mycoplasma, IID817; Organism No. 28, PPLO broth + 1% glucose, 37° C.; read-out: Minimum Inhibitory Concentration (MIC)
Description: Mycoplasma pneumoniae IID817 was used as the test microorganism in a culture medium prepared by adding 1% of glucose to "PPLO broth (manufactured by Difco Co.) liquid culture medium" at 37° C. with phenol red as an indicator, thereby culturing the test microorganism.

[10] = tested on: Pseudomonas aeruginosa IFO 3445; assay: Antibacterial activity, agar-dilution MIC, organism No. 15; details: Pseudomonas aeruginosa, IFO3445; Organism No. 15, bouillon-agar; read-out: Minimum Inhibitory Concentration
Excerpt: as §1

[11] = tested on: Bacillus subtilis ATCC 6633; assay: Antibacterial activity, agar-dilution MIC, organism No. 14; details: Bacillus subtilis, ATCC6633; Organism No. 14, bouillon-agar; read-out: Minimum Inhibitory Concentration
Excerpt: as §1

[12] = tested on: Streptococcus faecium IFO 3826; assay: Antibacterial activity, agar-dilution MIC, organism No. 27; details: Enterococcus faecium, IFO3826; Organism No. 27, bouillon-agar; read-out: Minimum Inhibitory Concentration
Excerpt: as §1

[13] = tested on: Streptococcus pyogenes Cook; assay: Antibacterial activity, agar-dilution MIC, organism No. 4; details: Streptococcus pyogenes; Organism No. 4, bouillon-agar; read-out: Minimum Inhibitory Concentration
Excerpt: as §1

[14] = tested on: Escherichia coli NIHJ-JC-2; assay: Antibacterial activity, agar-dilution MIC, organism No. 5; details: Escherichia coli, NIHJJC2; Organism No. 5, bouillon-agar; read-out: Minimum Inhibitory Concentration
Excerpt: as §1

[15] = tested on: Proteus vulgaris OX-19; assay: Antibacterial activity, agar-dilution MIC, organism No. 20; details: Proteus vulgaris, OX19; Organism No. 20, bouillon-agar; read-out: Minimum Inhibitory Concentration
Excerpt: as §1

[16] = tested on: Salmonella typhi 901; assay: Antibacterial activity, agar-dilution MIC, organism No. 9; details: Salmonella enterica, TYPHI, read-out: Minimum Inhibitory Concentration
Excerpt: as §1

[17] = tested on: Enterobacter aerogenes ATCC 13048; assay: Antibacterial activity, agar-dilution MIC, organism No. 23; details: Klebsiella aerogenes, ATCC13048; Organism No. 23, bouillon-agar; read-out: Minimum Inhibitory Concentration
Excerpt: as §1

[18] = tested on: Staphylococcus aureus MS 353; assay: Antibacterial activity, agar-dilution MIC, organism No. 3; details: Staphylococcus aureus, MS353; Organism No. 3, bouillon-agar; read-out: Minimum Inhibitory Concentration
Excerpt: as §1

[19] = tested on: Streptococcus pyogenes IFO 3340; assay: Antibacterial activity, agar-dilution MIC, organism No. 26; details: Streptococcus pyogenes, IFO3340; Organism No. 26, bouillon-agar; read-out: Minimum Inhibitory Concentration
Excerpt: as §1

[20] = tested on: Staphylococcus aureus FDA 209PJc-1; assay: Antibacterial activity, agar-dilution MIC, organism No. 1; details: Staphylococcus aureus, FDA209PJC1; Organism No. 1, bouillon-agar; read-out: Minimum Inhibitory Concentration
Excerpt: as §1

[21] = tested on: Proteus vulgaris HX-19; assay: Antibacterial activity, agar-dilution MIC, organism No. 21; details: Proteus vulgaris, HX19; Organism No. 21, bouillon-agar; read-out: Minimum Inhibitory Concentration
Excerpt: as §1

[22] = tested on: Aspergillus niger IFO 6342; assay: Antifungal activity, agar-dilution MIC, organism No. 30; details: Aspergillus niger, IFO6342; Organism No. 30, bouillon-agar; read-out: Minimum Inhibitory Concentration
Excerpt: as §1

[23] = tested on: Salmonella paratyphi-A 1015; assay: Antibacterial activity, agar-dilution MIC, organism No. 10; details: Salmonella enterica, PARATYPHI, read-out: Minimum Inhibitory Concentration
Excerpt: as §1

[24] = tested on: Proteus rettgeri IFO 3850; assay: Antibacterial activity, agar-dilution MIC, organism No. 22; details: Providencia rettgeri, IFO3850; Organism No. 22, bouillon-agar; read-out: Minimum Inhibitory Concentration
Excerpt: as §1

[25] = tested on: Candida albicans IAM 4905; assay: Antifungal activity, agar-dilution MIC, organism No. 29; details: Candida albicans, IAM4905; Organism No. 29, bouillon-agar; read-out: Minimum Inhibitory Concentration
Excerpt: as §1

[26] = tested on: Pseudomonas aeruginosa NCTC 10490; assay: Antibacterial activity, agar-dilution MIC, organism No. 16; details: Pseudomonas aeruginosa, NCTC10490; Organism No. 16, bouillon-agar; read-out: Minimum Inhibitory Concentration
Excerpt: as §1

[27] = tested on: Staphylococcus aureus Terajima; assay: Antibacterial activity, agar-dilution MIC, organism No. 2; details: Staphylococcus aureus; Organism No. 2, bouillon-agar; read-out: Minimum Inhibitory Concentration
Excerpt: as §1

[28] = tested on: Enterobacter cloacae 963; assay: Antibacterial activity, agar-dilution MIC, organism No. 24; details: Enterobacter cloacae, 963; Organism No. 24, bouillon-agar; read-out: Minimum Inhibitory Concentration
Excerpt: as §1

[29] = tested on: Pseudomonas aeruginosa PAO 1; assay: Antibacterial activity, agar-dilution MIC, organism No. 17; details: Pseudomonas aeruginosa, PAO1; Organism No. 17, bouillon-agar; read-out: Minimum Inhibitory Concentration
Excerpt: as §1

SMILES	MIC [1] [mg/L]	MIC [2] [mg/L]	MIC [3] [mg/L]	MIC [4] [mg/L]	MIC [5] [mg/L]	MIC [6] [mg/L]	MIC [7] [mg/L]	MIC [8] [mg/L]	MIC [9] [mg/L]	MIC [10] [mg/L]	MIC [11] [mg/L]	MIC [12] [mg/L]	MIC [13] [mg/L]	MIC [14] [mg/L]	MIC [15] [mg/L]	MIC [16] [mg/L]	MIC [17] [mg/L]	MIC [18] [mg/L]	MIC [19] [mg/L]	MIC [20] [mg/L]	other results
[C-]#[N+]C12CC3(/C=C/C(=O)Nc4ccc(C)cc4)OC3C1O2 (stereo not drawn) [compound 37]	12.5 (≈ 44.3 µM)	200 (≈ 708 µM)	0.2 (≈ 0.708 µM)	6.25 (≈ 22.1 µM)	1.56 (≈ 5.53 µM)	0.1 (≈ 0.354 µM)	25 (≈ 88.6 µM)	< 0.05	0.2	> 200	6.25 (≈ 22.1 µM)	25 (≈ 88.6 µM)	12.5 (≈ 44.3 µM)	25 (≈ 88.6 µM)	0.2 (≈ 0.708 µM)	1.56 (≈ 5.53 µM)	100 (≈ 354 µM)	0.39 (≈ 1.38 µM)	1.56 (≈ 5.53 µM)	0.39 (≈ 1.38 µM)	MIC [21]: < 0.05 mg/L; MIC [22]: 1.56 mg/L (≈ 5.53 µM); MIC [23]: 0.2 mg/L (≈ 0.708 µM); MIC [24]: 3.13 mg/L (≈ 11.1 µM); MIC [25]: 0.39 mg/L (≈ 1.38 µM); MIC [26]: > 200 mg/L; MIC [27]: 1.56 mg/L (≈ 5.53 µM); MIC [28]: 50 mg/L (≈ 177 µM); MIC [29]: > 200 mg/L
[C-]#[N+]C12CC3(/C=C/C(=O)N[C@@H](CC(=O)OCc4ccccc4)C(=O)OCc4ccccc4)OC3C1O2 (stereo partly drawn) [Compound No. 29]	> 200	> 200	> 200	> 200	> 200	> 200	> 200	< 1.56	> 100	> 200	25 (≈ 51.2 µM)	6.25 (≈ 12.8 µM)	> 200	> 200	> 200	> 200	> 200	3.13 (≈ 6.41 µM)	> 200	< 1.56	MIC [21]: 25 mg/L (≈ 51.2 µM); MIC [22]: > 100 mg/L; MIC [23]: > 200 mg/L; MIC [24]: > 200 mg/L; MIC [25]: > 100 mg/L; MIC [26]: > 200 mg/L; MIC [27]: 6.25 mg/L (≈ 12.8 µM); MIC [28]: > 200 mg/L; MIC [29]: > 200 mg/L
[C-]#[N+]C12CC3(/C=C/C(=O)N[C@@H](CCC(=O)OC)C(=O)OC)OC3C1O2 (stereo partly drawn) [Compound No. 26]	100 (≈ 285 µM)	> 200	50 (≈ 143 µM)	100 (≈ 285 µM)	50 (≈ 143 µM)	50 (≈ 143 µM)	100 (≈ 285 µM)	12.5 (≈ 35.7 µM)	1.56	> 200	100 (≈ 285 µM)	> 200	50 (≈ 143 µM)	100 (≈ 285 µM)	25 (≈ 71.4 µM)	50 (≈ 143 µM)	> 200	25 (≈ 71.4 µM)	50 (≈ 143 µM)	25 (≈ 71.4 µM)	MIC [21]: 12.5 mg/L (≈ 35.7 µM); MIC [22]: 100 mg/L (≈ 285 µM); MIC [23]: 50 mg/L (≈ 143 µM); MIC [24]: > 200 mg/L; MIC [25]: 100 mg/L (≈ 285 µM); MIC [26]: > 200 mg/L; MIC [27]: 100 mg/L (≈ 285 µM); MIC [28]: > 200 mg/L; MIC [29]: > 200 mg/L
